Each structure is given as a SMILES string.

Type in all cases: physicochemical
Holding throughout (settings): read-out: Peff

A short description of series [1]: Membrane permeability of the compound at pH 7.4 by PAMPA.
Series [2] can be described thus: Membrane permeability of the compound at pH 6.2 by PAMPA.
Series [3] can be described thus: Membrane permeability of the compound at pH 5 by PAMPA. On the technique in general: The PAMPA barrier holds no transporters, so it reflects passive diffusion.

On to `O=C(O)c1ccnc(-c2cn([C@@H]3CCCN(C(=O)c4ccccc4)C3)nn2)c1`, for which the Papp in series [1] turned out to be 0.69 ×10⁻⁶ cm/s; in series [2], 0.41 ×10⁻⁶ cm/s; in series [3], 1.9 ×10⁻⁶ cm/s.
For `COC(=O)c1ccnc(-c2cn([C@@H]3CCCN(C(=O)c4ccccc4)C3)nn2)c1`, in that order: 52 ×10⁻⁶ cm/s, 45 ×10⁻⁶ cm/s and 56 ×10⁻⁶ cm/s.

The values are drawn from ChEMBL document CHEMBL3621091, “Optimisation of a triazolopyridine based histone demethylase inhibitor yields a potent and selective KDM2A (FBXL11) inhibitor” (Medchemcomm, 2014).
